# Where two headings read alike, the source gives them in different places.
# System: amyloid β production in transfected H4 (human neuroglioma) cells stably expressing APP constructs
# Experiment: In vitro cell-based assay of inhibitors of amyloid β production (ELISA)
# Conditions: transfected H4 cells stably expressing APP constructs, approximately 16 hours incubation, amyloid β in medium by ELISA, read-out: ACTIVITY (IC50, inhibition of amyloid β production)
# Procedure, shortened: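 H4 neuroglioma cells stably expressing APP constructs were dosed in fresh medium, screened initially at 10-100 μM, and incubated ~16 h. Medium Aβ was measured by ELISA with C-terminal-epitope capture and N-terminal detection antibodies, quantified from a standard curve, with dose-response testing of actives.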
smiles,measurement,setting,value
"C[C@H](CCCSc1ccccc1)N(c1cc(Cl)ccc1CO)S(=O)(=O)c1ccc(Cl)cc1 [Example 1226, 4-chloro-N-[5-chloro-2-(hydroxymethyl)phenyl]-N-[1(R)-methyl-(4-phenylthio)butyl]benzenesulfonamide]",IC50,,≤ 0.025 µM
"CCSCCC[C@@H](C)N(c1cc(Cl)ccc1CO)S(=O)(=O)c1ccc(Cl)cc1 [Example 1227, 4-chloro-N-[5-chloro-2-(hydroxymethyl)phenyl]-N-[1(R)-methyl-(4-ethylthio)butyl]benzenesulfonamide]",IC50,,≤ 0.025 µM
"CSCCC[C@@H](C)N(c1cc(Cl)ccc1CO)S(=O)(=O)c1ccc(Cl)cc1 [Example 1228, 4-chloro-N-[5-chloro-2-(hydroxymethyl)phenyl]-N-[1(R)-methyl-(4-methylthio)butyl]benzenesulfonamide]",IC50,,≤ 0.025 µM
C[C@H](CCCSC(C)(C)C)N(c1cc(Cl)ccc1CO)S(=O)(=O)c1ccc(Cl)cc1 [Example 1229],IC50,,≤ 0.025 µM
C[C@H](CCCS(C)(=O)=O)N(c1cc(Cl)ccc1CO)S(=O)(=O)c1ccc(S(C)(=O)=O)cc1 [Example 1230],IC50,,0.025 to 0.05 µM
"C[C@H](CCCS(=O)(=O)O)N(c1cc(Cl)ccc1CO)S(=O)(=O)c1ccc(Cl)cc1 [Example 1231, (4R)-4-[N-[5-chloro-2-(hydroxymethyl)phenyl][(4-chlorophenyl)sulfonyl]amino]pentylsulfonic acid]",IC50,"Homo sapiens, 16 h",0.1 to 0.5 µM
"CCSCCC[C@@H](C)N(c1cc(Cl)ccc1CO)S(=O)(=O)c1ccc(SCC)cc1 [Example 1232, 4-ethylthio-N-[5-chloro-2-(hydroxymethyl)phenyl]-N-[1(R)-methyl-(4-ethylthio)butyl]benzenesulfonamide]",IC50,,> 0.5 µM
"CNS(=O)(=O)CCC[C@@H](C)N(c1cc(Cl)ccc1CO)S(=O)(=O)c1ccc(Cl)cc1 [Example 1233, 4-chloro-N-[5-chloro-2-(hydroxymethyl)phenyl]-N-[4-[(methylamino)sulfonyl]-1(R)-methylbutyl]benzenesulfonamide]",IC50,"Homo sapiens, 16 h",≤ 0.025 µM
"C[C@H](CCCS(=O)(=O)N(C)C)N(c1cc(Cl)ccc1CO)S(=O)(=O)c1ccc(Cl)cc1 [Example 1234, 4-chloro-N-[5-chloro-2-(hydroxymethyl)phenyl]-N-[4-[(dimethylamino)sulfonyl]-1(R)-methylbutyl]benzenesulfonamide]",IC50,"Homo sapiens, 16 h",≤ 0.025 µM
"C[C@H](CCCS(N)(=O)=O)N(c1cc(Cl)ccc1CO)S(=O)(=O)c1ccc(Cl)cc1 [Example 1235, 4-chloro-N-[5-chloro-2-(hydroxymethyl)phenyl]-N-[4-(aminosulfonyl)-1(R)-methylbutyl]benzenesulfonamide]",IC50,"Homo sapiens, 16 h",≤ 0.025 µM
"C[C@H](CCCS(=O)(=O)N(CCCn1ccnc1)CC1CC1)N(c1cc(Cl)ccc1CO)S(=O)(=O)c1ccc(Cl)cc1 [Example 1236, 4-chloro-N-[5-chloro-2-(hydroxymethyl)phenyl]-N-[4-[N-(cyclopropylmethyl)-N-[3-(1H-imidazol-1-yl)-propyl]aminosulfonyl]-1(R)-methylbutyl]benzenesulfonamide]",IC50,"Homo sapiens, 16 h",0.1 to 0.5 µM
"C[C@H](COC(=O)N1CCCC1)N(c1cc(Cl)ccc1Cl)S(=O)(=O)c1ccc(Cl)cc1 [Example 1237, 4-Chloro-N-(2,5-dichlorophenyl)-N-[2-[[[pyrrolidin-1-yl]carbonyl]oxy]-R-1-methylethyl]benzenesulfonamide]",IC50,"Homo sapiens, 16 h",≤ 0.025 µM
"C[C@H](COC(=O)N1CCCC1)N(c1cc(F)ccc1F)S(=O)(=O)c1ccc(Cl)cc1 [Example 1238, 4-Chloro-N-(2,5-difluorophenyl)-N-[2-[[[pyrrolidin-1-yl]carbonyl]oxy]-R-1-methylethyl]benzenesulfonamide]",IC50,"Homo sapiens, 16 h",≤ 0.025 µM
"C[C@H](COC(=O)NCCCn1ccnc1)N(c1cc(F)ccc1F)S(=O)(=O)c1ccc(Cl)cc1 [Example 1239, 4-Chloro-N-(2,5-difluorophenyl)-N-[2-[[N′-[3-(1H-imidazol-1-yl)propylamino]carbonyl]oxy]-(R)-1-methylethyl]benzenesulfonamide]",IC50,,≤ 0.025 µM

# From patent US6967196B1, “Sulfonamide compounds and uses thereof” (Bristol-Myers Squibb Company, priority 1999, dated 2005)
